Measured values reported in paper PMC5082338, “Different Culture Metabolites of the Red Sea Fungus Fusarium equiseti Optimize the Inhibition of Hepatitis C Virus NS3/4A Protease (HCV PR)” (Marine Drugs, 2016).
Values joined by “and” are separate entries in the source; they are usually repeats but may differ in a detail not shown here. Equal entries are not always repeated. Where two headings read alike, the source gives them in different places. Peptide text beside a SMILES is read from it.

B1: T-I: soybean trypsin-chymotrypsin inhibitor (positive control for trypsin) (protein)
chain: DDESSKPCCDQCACTKSNPPQCRCSDMRLNSCHSACKSCICALSYPAQCFCVDITDFCYEPCKPSEDDKEN
modifications: mature limits and check

Key:
Bacillus megaterium = assay: Antimicrobial activity, inhibition zone; type: cell-based; conditions: Priestia megaterium; for zone of inhibition: read-out: Inhibition zone, Bacillus megaterium
Excerpt: Table 1 Antimicrobial potential of the culture extracts and isolated compounds from F. equiseti. | column: Gram-Positive Bacteria / Bacillus megaterium

Staphylococcus aureus = assay: Antimicrobial activity, inhibition zone; type: cell-based; conditions: for zone of inhibition: read-out: Inhibition zone, Staphylococcus aureus
Excerpt: Table 1 Antimicrobial potential of the culture extracts and isolated compounds from F. equiseti. | column: Gram-Positive Bacteria / Staphylococcus aureus

Bacillus subtilis = assay: Antimicrobial activity, inhibition zone; type: cell-based
HCV NS3/4A protease = HCV NS3/4A protease (Hepatitis C virus genotype 1b (strain HC-J4), UniProt O92972); assay: HCV protease inhibitory activity (SensoLyte 520 HCV protease assay kit, fluorimetric); type: biochemical; conditions: for Inhibition of HCV PR (in words): compared to other constituents; for IC50: recHCV PR, 37 °C, 30 min
HCV NS3/4A protease, sequence (O92972 1027-1207, other chains not shown): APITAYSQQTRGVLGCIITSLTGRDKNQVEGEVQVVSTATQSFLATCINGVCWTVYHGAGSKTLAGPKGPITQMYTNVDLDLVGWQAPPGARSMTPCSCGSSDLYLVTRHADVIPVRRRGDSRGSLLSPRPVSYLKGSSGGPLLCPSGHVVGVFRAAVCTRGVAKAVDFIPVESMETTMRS
Excerpt: HCV NS3 is considered as a serine protease, its active site contains serine 139 amino acid residues, which attack the substrate by forming a reversible covalent bond with its amino acid residues. To be activated, the HCV NS3 has to be coupled with an activating protein named (4A), and is therefore given the name HCV NS3/4A, which is active only in its heterodimer form. The culture extracts of the endophytic fungus F. equiseti and their isolated compounds were screened for inhibition of HCV protease using the hepatitis virus C NS3 protease inhibitor 2 as a positive control. Moreover, the selectivity of the active metabolites toward HCV NS3/4A protease (viral protease) and not human serine proteases such as trypsin and chymotrypsin has been confirmed through investigating the inhibitory activity of these extracts and/or their isolated chemical constituents on human recombinant Trypsin.
(§1) Sensolyte™ 520 HCV Protease assay kit Fluorimetric (cat#AS-71145), HCV NS3/4A protease and Sensolyte™, Green protease Assay Kit Fluorimetric (cat#AS-71124), and Hepatitis Virus C NS3 protease inhibitor 2 (cat#AS-25346) were purchased from AnaSpec Inc., San Jose, CA, USA. Chymotrypsin inhibitor (Soybean trypsin) was purchased from Sigma Aldrich Co. (St. Louis, MO, USA), and Becton Dickinson Falcon™ (Tokyo, Japan). Microtest 384-well 120 μL black assay plates, no lid, non-sterile, were purchased from Becton Dickinson Inc, Franklin Lakes, NJ, USA. Culture media: Czapek agar, bacteriological peptone, malt extract, yeast extract powder, nutrient agar and potato dextrose broth were procured from Lab M, Bury, UK; Glucose, (Acros Organics, Geel, Belgium), K2HPO4 (Laboratory Reagent, Mumbai, India), MgSO4 (Oxford Laboratory Reagent, Mumbai, India), agar (Sisco Research Laboratories Pvt. Ltd., Mumbai, India).
Samples of 2 μL of culture broth fungus extracts and isolated compounds dissolved in dimethyl sulfoxide (DMSO) were placed in each well of a 384-well microplate, then 8 μL of recHCV PR (0.5 μg/mL) were added, and the plate was briefly agitated. Finally, 10 μL of the freshly prepared substrate [Ac-Asp-Glu-Dap (QXLTM520)-Glu-Glu-Abu-COO-Ala-Ser-Cys(5-FAMsp)-NH2] were added with sequential rotational shaking. The reaction mixture was incubated at 37 °C for 30 min. The fluorimetric analyses were performed on an automated TECAN GENios plate reader (Männedorf, Switzerland) with excitation and emission wavelengths at 485 and 520 nm, respectively. Each sample was tested in triplicate. HCV PR inhibition (%) was calculated using the following equation: % Inhibition = (Fsubstrate − Ftestsample) × 100/Fsubstrate where Fsubstrate is the fluorescence of the enzyme and substrate only, and Ftestsample is the fluorescence of the assay mixture with the added sample.

Candida albicans = assay: Antimicrobial activity, inhibition zone; type: cell-based; conditions: oxytetracycline control 30 μg
[1] = biological target: T1, human recombinant Trypsin (Homo sapiens, UniProt P07477); assay: Green protease assay (trypsin inhibitory activity); type: biochemical; conditions: 37 °C, 30 min
T1 construct: purchased AnaSpec Inc., San Jose, CA, USA AS-71124 (Green protease Assay Kit; no catalogue number for trypsin itself)
Protocol: as §1, with “Chymotrypsin” for “Sensolyte™ 520 HCV Protease assay kit Fluorimetric (cat#AS-71145), HCV NS3/4A protease and Sensolyte™, Green protease Assay Kit Fluorimetric (cat#AS-71124), and Hepatitis Virus C NS3 protease inhibitor 2 (cat#AS-25346) were purchased from AnaSpec Inc., San Jose, CA, USA. Chymotrypsin”
Then 17.5 μL of assay buffer and 2.5 μL of trypsin (0.1 U/μL) were added and the plate was briefly agitated. […] The positive control was the soybean trypsin-chymotrypsin inhibitor. Inhibition was calculated as above for HCV PR assay.

[2] = Bacillus subtilis, oxytetracycline control 30 μg
[3] = read-out: IC50 HCV Protease Inhibitory Activity

Molecule | zone of inhibition (Bacillus megaterium; oxytetracycline control 30 μg) [mm] | zone of inhibition (Staphylococcus aureus; oxytetracycline control 30 μg) [mm] | zone of inhibition (Bacillus subtilis; [2]) [mm] | IC50 (HCV NS3/4A protease; [3]) | IC50 [1] [µM] | zone of inhibition (Candida albicans) [mm] | also measured
CN(C)[C@@H]1C(O)=C(C(N)=O)C(=O)[C@@]2(O)C(O)=C3C(=O)c4c(O)cccc4[C@@](C)(O)[C@H]3[C@H](O)[C@@H]12 [Oxytetracycline, reference compound] | 20 | 17 | 18 |  |  |  | 
CC(C)CC1NC(=O)C(C)NC1=O [compound 1, cyclo-L-Ala-L-Leu] |  |  |  | 58.3 ± 3.51 µM |  |  | zone of inhibition at 30 µg/disc (Bacillus megaterium; oxytetracycline control 30 μg): 12 mm; Inhibition of HCV PR (in words) (HCV NS3/4A protease): inactive; zone of inhibition at 30 µg/disc (Candida albicans): 13 mm
CC(C)[C@@H]1NC(=O)[C@@H]2CCCN2C1=O [compound 2, cyclo(L-Pro-L-Val)] | 11 |  | 18 | 23.2 µM and 23.3 µM | 54.2 ± 1.88 | 9 | Sensitivity of B. subtilis (in words) (Bacillus subtilis): highly sensitive
Cc1c[nH]c(=O)[nH]c1=O [compound 4, thymine] |  |  |  | 51.8 ± 2.49 µM |  |  | Inhibition of HCV PR (in words) (HCV NS3/4A protease): inactive
CC(C)CC1NC(=O)C2CCCN2C(=O)C(Cc2ccccc2)NC(=O)C2CCCN2C1=O (stereo not drawn) [compound 5, cyclo[Phenylalanyl-Pro-Leu-Pro]] (cyclo(FPLP); configuration not given here) | 10 | 9 |  | 29.4 µM and 29.5 µM | 226 ± 4.26 | 12 | 
CC(C=CC=C(C)C(O)C(C)C1CC(O)C(C)=CC=CC(C)C2CC(CC=CC(=O)O1)CC(=O)O2)=Cc1coc(C)n1 (stereo not shown) [compound 6, 17-demethyl-2,11-dideoxy-rhizoxin] |  |  |  |  | 145 ± 3.66 | 19 | zone of inhibition (Bacillus megaterium): 8 mm; IC50 (HCV NS3/4A protease; IC50 HCV Protease Inhibitory Activity): 34.4 µM; zone of inhibition (Staphylococcus aureus): 12 mm
CC(C)[C@@H](C)CC[C@@H](C)C1CCC2C3=CC=C4C[C@@H](O)CC[C@]4(C)C3CC[C@@]21C (stereo partly drawn) [compound 8, ergostra-5,7-dien-3β-ol] |  |  |  | 77.1 ± 4.55 µM |  |  | Inhibition of HCV PR (in words) (HCV NS3/4A protease): inactive
CC[C@@H](CC[C@@H](C)C1CCC2C3CC=C4C[C@@H](O[C@@H]5O[C@H](CO)[C@@H](O)[C@H](O)[C@H]5O)CC[C@]4(C)C3CC[C@@]21C)C(C)C (stereo partly drawn) [compound 9, β-sitosterol 3-O-β-glucoside] | 14 | 9 | 11 | 76.6 ± 3.78 µM |  | 10 | Inhibition of HCV PR (in words) (HCV NS3/4A protease): inactive
CC1=C(O)C(=O)C(Cl)=C(O)C1=O [compound 11, 5-Chloro-3,6-dihydroxy-2-methyl-1,4-benzoquinone] |  |  |  | 35.1 µM | 294.8 ± 2.87 |  | 
COc1cc(O)c2c(=O)c3c(C)cc(O)cc3oc2c1 [compound 12, griseoxanthone C] |  |  |  | 19.8 µM and 19.9 µM | 51.3 |  | zone of inhibition at 30 µg/disc (Bacillus megaterium; oxytetracycline control 30 μg): 10 mm; zone of inhibition at 30 µg/disc (Bacillus subtilis; [2]): 13 mm
Cc1cc(O)c2c(c1)C(=O)c1cccc(O)c1C2=O [compound 13, chrysophanol] | 10 | 15 |  | > 1000 µM |  | 11 | 
O=C1c2cc(O)cc(O)c2C(=O)c2c(O)cc(CO)cc21 [compound 14, ω-hydroxyemodin] | 17 | 12 | 9 | 10.7 µM | 48.5 | 18 | 
O=C1N[C@H](Cc2ccc(O)cc2)C(=O)N2CCC[C@H]12 [compound 15, cyclo(L-Tyr-L-Pro)] |  |  |  | 18.2 ± 1.7 µM | 37.9 ± 3.8 |  | zone of inhibition at 30 µg/disc (Bacillus megaterium; oxytetracycline control 30 μg): 8 mm; zone of inhibition at 30 µg/disc (Staphylococcus aureus; oxytetracycline control 30 μg): 11 mm; zone of inhibition at 30 µg/disc (Candida albicans): 13 mm
OCc1ccc(-c2nccc3c2[nH]c2ccccc23)o1 [compound 16, perlolyrin] | 9 | 14 | 8 | 37.8 µM and 37.9 µM | > 1000 | 10 | 
Nc1ncnc2c1ncn2[C@@H]1O[C@H](CO)C[C@H]1O [compound 17, cordycepin] | 11 | 16 | 9 | 22.3 µM and 22.4 µM | > 1000 | 14 | 
Nc1ncnc2c1ncn2C1OC(CO)C(O)C1O (stereo not shown) [compound 18, ara-A] | 12 | 10 | 12 | 24.5 µM | 138 ± 2.49 |  | 
CCO[C@@H]1O[C@H](CO)[C@@H](O)[C@H](O)[C@H]1O [compound 19, ethyl-O-β-glucoside] |  |  |  | > 1000 µM |  |  | 
B1 |  |  |  |  | 0.5 |  | 
